This is an account of results in US11739074B2, “Ras inhibitors” (Revolution Medicines, Inc., priority 2019, dated 2023).

Type in all cases: cell-based
For experiment [1], the system named is AsPC-1 (K-Ras G12D). Kind of experiment: CellTiter-Glo cell viability assay, AsPC-1. The conditions noted are these: Homo sapiens, ASPC1, 120 h. In short, it runs like this:
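Percent-of-DMSO luminescence values (CellTiter-Glo, day 5, plates equilibrated ~30 minutes at ambient temperature) were curve-fitted using a 4-parameter logistic equation; compounds had been added straight into wells containing the cells.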
(Cellular ATP, detected with luciferase, serves as a proxy for viable cell number.)

Experiment [2] relates to AsPC-1 (K-Ras G12D). Briefly: Potency assay: pERK in AsPC-1 cells. The conditions noted are these: Homo sapiens.
In experiment [3] the test system is NCI-H358 (K-Ras G12C). Briefly: CellTiter-Glo cell viability assay, H358. The conditions noted are these: Homo sapiens, NCI-H358, 120 h. How it is done:
Determination of Cell Viability in RAS Mutant Cancer Cell Lines
Protocol: CellTiter-Glo® Cell Viability Assay
Note—The following protocol describes a procedure for monitoring cell viability of K-Ras mutant cancer cell lines in response to a compound of the invention. Other RAS isoforms may be employed, though the number of cells to be seeded will vary based on cell line used.
Test compounds (132.5 nL) were directly dispensed into the assay plates containing cells. […] On day 5, assay plates and their contents were equilibrated to room temperature for approximately 30 minutes. […] Luminescence was measured using the PerkinElmer Enspire. Data were normalized by the following: (Sample signal/Avg. DMSO)*100. The data were fit using a four-parameter logistic fit.

Where [4] appears, read: AsPC-1, K-Ras G12D, 5-day treatment, read-out: AsPC-1 Cell Viability IC50.
Setting [5] is: ASPC1, AsPC-1 cells, K-Ras G12D, read-out: pERK EC50 (AsPC-1 KRAS G12D).
Setting [6] is: NCI-H358, K-Ras G12C, 5-day treatment, read-out: H358 Cell Viability IC50.
Setting [7] is: ASPC1, read-out: pERK EC50 (AsPC-1 KRAS G12D).
Where [8] appears, read: read-out: H358 Cell Viability IC50, NCI-H358, K-Ras G12C, 5-day treatment.

Where two headings read alike, the source gives them in different places.

As to `CCn1c(-c2cccnc2[C@H](C)OC)c2c3cc(ccc31)-c1cc(O)cc(c1)C[C@H](NC(=O)[C@H](C1CCCC1)N(C)C(=O)[C@H](C)N(C)C(=O)[C@@H]1N[C@@H]1C1CC1)C(=O)N1CCC[C@H](N1)C(=O)OCC(C)(C)C2` [Compound 328], the IC50 (usually the concentration that gives 50% inhibition) in experiment [1] (setting [4]) is 0.1 to 1 µM; in experiment [3] (setting [6]) it was under 10 nM. The EC50 (in general, the concentration needed to bring the measured effect to its halfway point) in experiment [2] (setting [5]) was under 5 µM.

`CCn1c(-c2cccnc2[C@H](C)OC)c2c3cc(ccc31)-c1cc(O)cc(c1)C[C@H](NC(=O)[C@H](C(C)C)N(C)C(=O)CN(C)C(=O)[C@@H]1N[C@@H]1C(F)(F)F)C(=O)N1CCC[C@H](N1)C(=O)OCC(C)(C)C2` [Compound 258]: the IC50 in experiment [1] (read-out: AsPC-1 Cell Viability IC50, AsPC-1, K-Ras G12D, 5-day treatment) lay in the range of 0.1 to 1 µM; in experiment [3] (setting [8]) it was 10 to 100 nM. Moreover, the EC50 in experiment [2] (setting [7]) was under 5 µM.

As for `CCn1c(-c2cccnc2[C@H](C)OC)c2c3cc(ccc31)-c1csc(n1)C[C@H](NC(=O)[C@H](C(C)C)N(C)C(=O)N1CCN(C(=O)[C@H]3CN3)CC1)C(=O)N1CCC[C@H](N1)C(=O)OCC(C)(C)C2` [Compound 169], the IC50 in experiment [1] (setting [4]) is 0.1 to 1 µM; in experiment [3] (setting [6]), 10 to 100 nM. The EC50 in experiment [2] (setting [5]) was under 5 µM.

Turning to `CCn1c(-c2cccnc2[C@H](C)OC)c2c3cc(ccc31)-c1csc(n1)C[C@H](NC(=O)[C@H](C(C)C)N(C)C(=O)N(C)CC1CN(C(=O)[C@H]3CN3)C1)C(=O)N1CCC[C@H](N1)C(=O)OCC(C)(C)C2` [Compound 293], the 50% inhibitory concentration (IC50) in experiment [1] (setting [4]) lay within 1 to 10 µM; in experiment [3] (setting [6]) it was 10 to 100 nM. In addition, the EC50 in experiment [2] (setting [5]) was under 5 µM.

Turning to `CCn1c(-c2cnccc2COC)c2c3cc(ccc31)-c1cccc(c1)C[C@H](NC(=O)[C@H](C(C)C)N(C)C(=O)CCN=C=Nc1ccc(OC)cc1OC)C(=O)N1CCC[C@H](N1)C(=O)OCC(C)(C)C2` [24 A and B], the results for the IC50 in experiment [1] (setting [4]) and in experiment [3] (setting [6]) were over 10 µM and 1000 to 10000 nM, respectively.

Regarding `CCn1c(-c2cnccc2COC)c2c3cc(ccc31)-c1cccc(c1)C[C@H](NC(=O)[C@H](C(C)C)N(C)C(=O)CCN=C=NCc1ccc(OC)cc1)C(=O)N1CCC[C@H](N1)C(=O)OCC(C)(C)C2` (atropisomer, axis not shown) [18 A and B], the figures for the IC50 in experiment [1] (setting [4]) and in experiment [3] (setting [6]) were 1 to 10 µM and 1000 to 10000 nM, respectively.

Take `CCn1c(-c2cnccc2COC)c2c3cc(ccc31)-c1cccc(c1)C[C@H](NC(=O)[C@H](C(C)C)N(C)C(=O)CCN=C=Nc1ccc(N3CCOCC3)cc1)C(=O)N1CCC[C@H](N1)C(=O)OCC(C)(C)C2` [Compound 67]: the IC50 is over 10 µM in experiment [1] (setting [4]) and over 10000 nM in experiment [3] (setting [6]).

Consider `CCn1c(-c2cnccc2COC)c2c3cc(ccc31)-c1cccc(c1)C[C@H](NC(=O)[C@H](C(C)C)N(C)C(=O)CCN=C=NCCc1cccs1)C(=O)N1CCC[C@H](N1)C(=O)OCC(C)(C)C2` [68 A and B], for which the IC50 in experiment [1] (setting [4]) was 1 to 10 µM; in experiment [3] (setting [6]), 1000 to 10000 nM.

Consider `CCn1c(-c2cnccc2COC)c2c3cc(ccc31)-c1cccc(c1)C[C@H](NC(=O)[C@H](C(C)C)N(C)C(=O)CCN=C=Nc1ccccc1OC)C(=O)N1CCC[C@H](N1)C(=O)OCC(C)(C)C2` [20 A and B], for which the IC50 in experiment [1] (setting [4]) is over 10 µM; in experiment [3] (setting [6]) it was 1000 to 10000 nM.

For the compound `CCn1c(-c2cnccc2COC)c2c3cc(ccc31)-c1cc(O)cc(c1)C[C@H](NC(=O)[C@H](C(C)C)N(C)C(=O)C1CCN(C(=O)[C@H]3CN3)CC1)C(=O)N1CCC[C@H](N1)C(=O)OCC(C)(C)C2` [Compound 3], the figures for the IC50 in experiment [1] (setting [4]) and in experiment [3] (setting [6]) were over 10 µM and 100 to 1000 nM, respectively.

For the compound `CCn1c(-c2cnccc2COC)c2c3cc(ccc31)-c1cc(O)cc(c1)C[C@H](NC(=O)[C@H](C(C)C)N(C)C(=O)CCN(C)C(=O)[C@H]1CN1)C(=O)N1CCC[C@H](N1)C(=O)OCC(C)(C)C2` (single isomer, unassigned) [Compound 41], the IC50 in experiment [1] (setting [4]) is over 10 µM; in experiment [3] (setting [6]) it was 10 to 100 nM.

With `CCn1c(-c2cnccc2COC)c2c3cc(ccc31)-c1cc(O)cc(c1)C[C@H](NC(=O)[C@H](C(C)C)N(C)C(=O)C1CN(C(=O)[C@H]3CN3)C1)C(=O)N1CCC[C@H](N1)C(=O)OCC(C)(C)C2` [Compound 5], the values for the IC50 in experiment [1] (setting [4]) and in experiment [3] (setting [6]) were over 10 µM and 10 to 100 nM, respectively.

For the compound `CCn1c(-c2cnccc2COC)c2c3cc(ccc31)-c1cc(O)cc(c1)C[C@H](NC(=O)[C@H](C(C)C)N(C)C(=O)N1CCCN(C(=O)[C@@H]3CN3)CC1)C(=O)N1CCC[C@H](N1)C(=O)OCC(C)(C)C2` [Compound 45], the IC50 was over 10 µM in experiment [1] (setting [4]) and 100 to 1000 nM in experiment [3] (setting [6]).

Take `CCn1c(-c2cccnc2[C@H](C)OC)c2c3cc(ccc31)-c1cc(O)cc(c1)C[C@H](NC(=O)[C@H](C(C)C)N(C)C(=O)[C@@]1(C)CCCN1C(=O)[C@@H]1CN1)C(=O)N1CCC[C@H](N1)C(=O)OCC(C)(C)C2` [Compound 241]: the values for the IC50 in experiment [1] (setting [4]) and in experiment [3] (setting [6]) were 0.1 to 1 µM and under 10 nM, respectively.

Take `CCn1c(-c2cnccc2COC)c2c3cc(ccc31)-c1cccc(c1)C[C@H](NC(=O)[C@H](C(C)C)N(C)C(=O)CCN=C=NCCCSC)C(=O)N1CCC[C@H](N1)C(=O)OCC(C)(C)C2` [16 A and B]: the IC50 fell in the range of 1 to 10 µM in experiment [1] (setting [4]) and 1000 to 10000 nM in experiment [3] (setting [6]).

Take `CCn1c(-c2cnccc2COC)c2c3cc(ccc31)-c1cc(O)cc(c1)C[C@H](NC(=O)[C@H](C(C)C)N(C)C(=O)c1ccc(NC(=O)[C@@H]3CN3)cn1)C(=O)N1CCC[C@H](N1)C(=O)OCC(C)(C)C2` [Compound 46]: the IC50 in experiment [1] (setting [4]) was over 10 µM; in experiment [3] (setting [6]), 100 to 1000 nM.

With `CCn1c(-c2cnccc2COC)c2c3cc(ccc31)-c1cc(O)cc(c1)C[C@H](NC(=O)[C@H](C(C)C)N(C)C(=O)C1CCN(C(=O)[C@@H]3CN3)CC1)C(=O)N1CCC[C@H](N1)C(=O)OCC(C)(C)C2` [Compound 4], the IC50 in experiment [1] (setting [4]) is over 10 µM; in experiment [3] (setting [6]) it was 100 to 1000 nM.

With `CCn1c(-c2cnccc2COC)c2c3cc(ccc31)-c1cc(O)cc(c1)C[C@H](NC(=O)[C@H](C(C)C)N(C)C(=O)[C@H]1CCN(C(=O)[C@@H]3CN3)C1)C(=O)N1CCC[C@H](N1)C(=O)OCC(C)(C)C2` [Compound 2], the IC50 is over 10 µM in experiment [1] (setting [4]) and 10 to 100 nM in experiment [3] (setting [6]).

On to `CCn1c(-c2cnccc2COC)c2c3cc(ccc31)-c1cc(O)cc(c1)C[C@H](NC(=O)[C@H](C(C)C)N(C)C(=O)[C@H]1CCN(C(=O)[C@@H]3CO3)C1)C(=O)N1CCC[C@H](N1)C(=O)OCC(C)(C)C2` [Example 31, (3S)—N-((2S)-1-(((6^3S,4S)-1^1-ethyl-2^5-hydroxy-1^2-(4-(methoxymethyl)pyridin-3-yl)-10,10-dimethyl-5,7-dioxo-6^1,6^2,6^3,6^4,6^5,6^6-hexahydro-1^1H-8-oxa-1(5,3)-indola-6(1,3)-pyridazina-2(1,3)-benzenacycloundecaphane-4-yl)amino)-3-methyl-1-oxobutan-2-yl)-N-methyl-1-((S)-oxirane-2-carbonyl)pyrrolidine-3-carboxamide], for which the IC50 is over 10 µM in experiment [1] (setting [4]) and 1000 to 10000 nM in experiment [3] (setting [6]).

Consider `CCn1c(-c2cccnc2[C@H](C)OC)c2c3cc(ccc31)-c1cc(O)cc(c1)C[C@H](NC(=O)[C@H](C(C)C)N(C)C(=O)CN(C)C(=O)[C@H]1N[C@@H]1C1CC1)C(=O)N1CCC[C@H](N1)C(=O)OCC(C)(C)C2` [Compound 136], for which the EC50 in experiment [2] (setting [7]) is under 5 µM. Besides, the IC50 in experiment [3] (setting [8]) was under 10 nM.

On to `CCn1c(-c2cnccc2COC)c2c3cc(ccc31)-c1cccc(c1)C[C@H](NC(=O)[C@H](C(C)C)N(C)C(=O)CCN=C=NCc1c(OC)cccc1OC)C(=O)N1CCC[C@H](N1)C(=O)OCC(C)(C)C2` [62 A and B], for which the IC50 in experiment [1] (setting [4]) lay in the range of 1 to 10 µM; in experiment [3] (setting [6]) it was 1000 to 10000 nM.

Turning to `CCn1c(-c2cnccc2COC)c2c3cc(ccc31)-c1cccc(c1)C[C@H](NC(=O)[C@H](C(C)C)N(C)C(=O)CCN=C=NCCOC)C(=O)N1CCC[C@H](N1)C(=O)OCC(C)(C)C2` [23 A and B], the IC50 lay within 1 to 10 µM in experiment [1] (setting [4]) and 1000 to 10000 nM in experiment [3] (setting [6]).

On to `CCn1c(-c2cnccc2COC)c2c3cc(ccc31)-c1cc(O)cc(c1)C[C@H](NC(=O)[C@H](C(C)C)N(C)C(=O)N1CCCN(C(=O)[C@H]3CN3)CC1)C(=O)N1CCC[C@H](N1)C(=O)OCC(C)(C)C2` [Compound 44], for which the results for the IC50 in experiment [1] (setting [4]) and in experiment [3] (setting [6]) were 1 to 10 µM and under 10 nM, respectively.

Regarding `CCn1c(-c2cnccc2COC)c2c3cc(ccc31)-c1cc(O)cc(c1)C[C@H](NC(=O)[C@H](C(C)C)N(C)C(=O)C1CN(C(=O)[C@@H]3CN3)C1)C(=O)N1CCC[C@H](N1)C(=O)OCC(C)(C)C2` [Compound 6], the IC50 is over 10 µM in experiment [1] (setting [4]) and 100 to 1000 nM in experiment [3] (setting [6]).

For `CCn1c(-c2cnccc2COC)c2c3cc(ccc31)-c1cc(O)cc(c1)C[C@H](NC(=O)[C@H](C(C)C)N(C)C(=O)CCN(C)C(=O)[C@@H]1CN1)C(=O)N1CCC[C@H](N1)C(=O)OCC(C)(C)C2` [Compound 40], the IC50 is over 10 µM in experiment [1] (setting [4]) and 100 to 1000 nM in experiment [3] (setting [6]).

Regarding `CCn1c(-c2cnccc2COC)c2c3cc(ccc31)-c1cccc(c1)C[C@H](NC(=O)[C@H](C(C)C)N(C)C(=O)CCN=C=Nc1ccc(N(C)C)cc1)C(=O)N1CCC[C@H](N1)C(=O)OCC(C)(C)C2` [Compound 66], the IC50 in experiment [1] (setting [4]) is over 10 µM; in experiment [3] (setting [6]), 1000 to 10000 nM.
